In patent US20240374566A1, “METHODS AND COMPOSITIONS FOR THE TREATMENT OF CANCER” (Lankenau Institute for Medical Resesarch, priority 2017, published 2024):
“Also recorded” adds a separate entry of the source.

What was measured:
4T1 lung metastases = assay: Hypoxyprobe staining of hypoxic regions within 4T1 lung metastases; type: in vivo, mouse; conditions: epacadostat 50 mg/kg oral gavage b.i.d. over 72 hours
Experimental: For IDO1 inhibitor treatment studies looking at tumor hypoxia, mice bearing established metastases at 3.5 weeks following 4T1 engraftment were administered either 50 mg/kg epacadostat (ChemieTek; Indianapolis, IN) in 100 μl vehicle (3% N,N-dimethylacetamide, 10% 2-hydroxylpropyl-β-cyclodextrin) by oral gavage b.i.d. (twice daily) over 72 hours, or 400 mg/kg indoximod (Sigma-Aldrich; St. Louis, MO) in 100 μl vehicle (0.5% Tween 80/0.5% Methylcellulose v/v in water) by oral gavage b.i.d. (twice daily) over 72 hours.
For visualizing regions of hypoxia within 4T1 lung metastases, the Hypoxyprobe™ Green Kit (Hydroxyprobe, Inc.; Burlington, MA) was used as per the manufacturer's instructions. 1 hour prior to euthanasia, mice were injected intravenously with 60 mg/kg Hypoxyprobe™ (pimonidazole HCl). Lung sections were stained with the FITC-conjugated mouse IgG1 monoclonal antibody (4.3.11.3) provided by the supplier that specifically binds to protein adducts of pimonidazole.

4T1 pulmonary metastases = assay: Neovascular density (anti-Cav1 staining) within 4T1 lung metastases after treatment; type: in vivo, mouse
Experimental: Pulmonary metastasis studies with the 4T1 mouse mammary carcinoma-derived cell line (Aslakson et al. (1992) Cancer Res., 52:1399-1405) were carried out by injecting 1×10^4 cells in 50 μl serum free medium into the number 4 mammary fatpad to establish an orthotopic tumor which then spontaneously metastasized to the lungs. For visualization of the pulmonary metastasis burden, lungs were inflated with 15% India ink dye, washed, and bleached in Fekete's solution. For immunofluorescence detection of pulmonary metastasis vasculature, lungs were inflated with 50% OCT and frozen in OCT blocks followed by 4 μm sectioning using the CryoJane tape transfer system. Blood vessels within the metastatic nodules were visualized by fluorescence staining with rabbit anti-mouse Caveolin1 polyclonal antibody (Cat. #3238S, Cell Signaling Technology, Boston, MA). For quantitatively evaluating vessel density within the metastatic nodules, multiple fields were acquired per mouse lung on a Zeiss inverted microscope with 40× objective. The pixel density corresponding to the positive Cav1 signal per field was determined in Adobe Photoshop, and these values were then averaged to determine the overall mean value per mouse. For IDO1 inhibitor treatment studies, mice bearing established metastases at 3.5 weeks following 4T1 engraftment were administered 50 mg/kg epacadostat (ChemieTek; Indianapolis, IN) in 100 μl vehicle (3% N,N-dimethylacetamide, 10% 2-hydroxylpropyl-β-cyclodextrin) by oral gavage b.i.d. (twice daily) over 72 hours at which point the animals were euthanized for analysis. Positive control animals were administered a single intraperitoneal (i.p.) injection of 50 mg/kg cyclophosphamide (Baxter; Deefield, IL) in 100 μl sterile saline and euthanized 72 hours later for analysis. […]

[1] = system: large, vascularized tumors; conditions: requires IFNγ receptor expression on normal host cells; cited from earlier work
[2] = mouse, rat and dog; cited from earlier work
[3] = system: allogeneic mouse concepti; conditions: in vivo; cited from earlier work
tumors = conditions: clinical study; cited from earlier work
human xenograft tumor = conditions: mice; cited from earlier work
[4] = system: lymphoma, lung cancer and sarcoma; conditions: cited from earlier work

With `NS(=O)(=O)NCCNc1nonc1C(=NO)Nc1ccc(F)c(Br)c1` [epacadostat] the “hypoxia in metastatic tumor (Hypoxyprobe staining) relative to vehicle” value (4T1 lung metastases) was “clear evidence of elevated hypoxia”, the “reduction in metastatic tumor neovascularization relative to vehicle alone” value (4T1 pulmonary metastases; 50 mg/kg oral gavage b.i.d. over 72 hours, established 4T1 pulmonary metastases 3.5 weeks after engraftment, P<0.01) was 3.2 fold and the “metastatic tumor neovascularization relative to vehicle (in words)” value (4T1 pulmonary metastases; epacadostat 50 mg/kg oral gavage b.i.d. over 72 hours, established 4T1 pulmonary metastases) was “reduced level of neovascularization; also recorded: clear reduction in metastatic tumor neovascularization”.
In the case of `O=P1(N(CCCl)CCCl)NCCCO1` (centres unmarked) [cyclophosphamide], the “metastatic tumor neovascularization, positive control (in words)” value (4T1 pulmonary metastases; single i.p. injection of 50 mg/kg, evaluated 72 hours later, compared with the effect of epacadostat) is listed as “comparable” and the tumor rejection [1] is listed as “immune-dependent rejection of large, vascularized tumors”.
For `Cn1cc(-c2ccc3c(c2)CCN3C(=O)Cc2cccc(C(F)(F)F)c2)c2c(N)ncnc21` [GSK2606414], the blood clearance [2] is listed as “low to moderate” and the oral bioavailability [2] is listed as “good”.
For `Cn1cc(C[C@H](N)C(=O)O)c2ccccc21` [1MT, 1-methyl-tryptophan], the “rejection of allogeneic mouse concepti” value [3] is given as “could elicit T cell-dependent rejection of allogeneic mouse concepti”.
For `Cn1cc(C[C@@H](N)C(=O)O)c2ccccc21` [indoximod, 1-methyl-D-tryptophan], the “sensitization of tumors to salvage chemotherapy” value (tumors) is given as “appeared to sensitize tumors to salvage chemotherapy”.
In the case of `Cc1cccc(CC(=O)N2CCc3c2ccc(-c2cn(C)c4ncnc(N)c24)c3F)n1` [GSK2656157], the “human xenograft tumor growth” value (human xenograft tumor) is listed as “delay of various human xenograft tumor growths”, the “weight loss and effect on pancreatic insulin production” value (human xenograft tumor) is listed as “without significant weight loss and/or effect on pancreatic insulin production” and the blood clearance [2] is listed as “low to moderate”. The oral bioavailability [2] was “good”.
In the case of `C=CC1=C(C)c2cc3[n-]c(cc4[n-]c(cc5nc(cc1n2)C(C)=C5C=C)c(C)c4CCC(=O)O)c(CCC(=O)O)c3C.[Zn+2]` [ZnPPIX, zinc protoporphyrin IX], the “antitumor effect in mice” value [4] is given as “effective in reducing lymphoma, lung cancer and sarcoma”.
